Assay results as given in PMC7380166, “How to Study the Metabolism of New Psychoactive Substances for the Purpose of Toxicological Screenings—A Follow-Up Study Comparing Pooled Human Liver S9, HepaRG Cells, and Zebrafish Larvae” (Frontiers in Chemistry, 2020).

Experiments:
[1] = tested on: HepaRG cells; test: Incubations with HepaRG cells, metabolite identification by LC-HRMS/MS; assay type: in vitro ADME, human; conditions: for Absolute peak area, HepaRG [25 μM]: 25 μM parent NPS; for Absolute peak area, HepaRG [25 μM] / Absolute peak area, HepaRG [250 μM]: cell culture medium, one replicate of n = 3, n.d. = not detected; for Absolute peak area, HepaRG [250 μM]: 250 μM parent NPS
[2] = tested on: zebrafish larvae; test: Zebrafish larvae exposure, metabolite identification by LC-HRMS/MS; conditions: for Absolute peak area, Zebrafish larvae [25 μM]: 25 μM 4F-MDMB-BINACA in medium, larvae 4 dpf, larvae extract, one replicate of n = 3, n.d. = not detected
[3] = biological target: T1, CYP1A2 (Homo sapiens, UniProt P05177); test: Monooxygenases activity screening, CYP1A2; assay type: in vitro ADME; set-up: key: +, detected; –: −, not detected; conditions: 25 μM 4F-MDMB-BINACA, 50 pmol/ml enzyme, 30 min, 37°C, duplicate
T1 construct: purchased Corning; host or cells: baculovirus-transfected insect cell microsomes (Supersomes)
T1 sequence (P05177 1-516): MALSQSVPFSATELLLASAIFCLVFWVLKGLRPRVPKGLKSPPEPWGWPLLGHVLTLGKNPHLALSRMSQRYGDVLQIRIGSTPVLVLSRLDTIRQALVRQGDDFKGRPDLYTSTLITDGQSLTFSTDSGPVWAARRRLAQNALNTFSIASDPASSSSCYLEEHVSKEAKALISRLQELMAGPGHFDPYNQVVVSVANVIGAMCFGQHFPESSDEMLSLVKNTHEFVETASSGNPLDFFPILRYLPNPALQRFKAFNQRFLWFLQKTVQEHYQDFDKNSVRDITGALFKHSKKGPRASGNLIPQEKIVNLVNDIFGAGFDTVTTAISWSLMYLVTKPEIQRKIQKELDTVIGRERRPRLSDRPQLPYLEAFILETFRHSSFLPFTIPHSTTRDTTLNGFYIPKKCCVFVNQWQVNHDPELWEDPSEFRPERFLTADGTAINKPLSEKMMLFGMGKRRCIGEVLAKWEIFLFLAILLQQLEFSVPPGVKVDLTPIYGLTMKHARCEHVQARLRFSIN
Description: (§1) According to an established protocol (Wagmann et al., [2016]), the final volume per reaction tube was 50 μl with a final 4F-MDMB-BINACA concentration of 25 μM and enzyme concentrations of 50 pmol/ml for CYP1A2, CYP2A6, CYP2B6, CYP2C8, CYP2C9, CYP2C19, CYP2D6, CYP2E1, CYP3A4, and CYP3A5, respectively, or 0.25 mg protein/ml for FMO3. Furthermore, the reaction mixture contained 90 mM phosphate buffer (pH 7.4), superoxide dismutase (200 U/ml), isocitrate (5 mM), MgCl2 (5 mM), isocitrate dehydrogenase (0.5 U/ml), and NADP^+ (1.2 mM). The phosphate buffer was replaced with Tris buffer (90 mM) for incubations with CYP2A6 and CYP2C9 according to the manufacturer's recommendation. All incubations were performed at 37°C for 30 min and terminated by adding 50 μl of ice-cold acetonitrile. Afterwards, the mixtures were centrifuged at 18,407 × g for 5 min, 70 μl of the supernatants was transferred into autosampler vials, and 1 μl was injected onto the LC-HRMS/MS system. Positive control incubations were performed with pHLM (1 mg microsomal protein/ml), and negative controls without enzyme were prepared to identify non-metabolically formed compounds. All incubations were done in duplicate.

[4] = biological target: T2, CYP2D6 (Homo sapiens, UniProt P10635); test: Monooxygenases activity screening, CYP2D6; assay type: in vitro ADME; set-up: key: +, detected; –: −, not detected; conditions: 25 μM 4F-MDMB-BINACA, 50 pmol/ml enzyme, 30 min, 37°C, duplicate
T2 construct: purchased Corning; host or cells: baculovirus-transfected insect cell microsomes (Supersomes)
Description: as §1

[5] = biological target: T3, CYP2E1 (Homo sapiens, UniProt P05181); test: Monooxygenases activity screening, CYP2E1; assay type: in vitro ADME; set-up: key: +, detected; –: −, not detected; conditions: 25 μM 4F-MDMB-BINACA, 50 pmol/ml enzyme, 30 min, 37°C, duplicate
T3 construct: purchased Corning; host or cells: baculovirus-transfected insect cell microsomes (Supersomes)
Description: as §1

[6] = plasma, human data for ephylone and 4F-PHP from Wagmann et al., [2019b]
[7] = urine, human data for ephylone and 4F-PHP from Wagmann et al., [2019b]

T3 sequence (P05181 whole entry): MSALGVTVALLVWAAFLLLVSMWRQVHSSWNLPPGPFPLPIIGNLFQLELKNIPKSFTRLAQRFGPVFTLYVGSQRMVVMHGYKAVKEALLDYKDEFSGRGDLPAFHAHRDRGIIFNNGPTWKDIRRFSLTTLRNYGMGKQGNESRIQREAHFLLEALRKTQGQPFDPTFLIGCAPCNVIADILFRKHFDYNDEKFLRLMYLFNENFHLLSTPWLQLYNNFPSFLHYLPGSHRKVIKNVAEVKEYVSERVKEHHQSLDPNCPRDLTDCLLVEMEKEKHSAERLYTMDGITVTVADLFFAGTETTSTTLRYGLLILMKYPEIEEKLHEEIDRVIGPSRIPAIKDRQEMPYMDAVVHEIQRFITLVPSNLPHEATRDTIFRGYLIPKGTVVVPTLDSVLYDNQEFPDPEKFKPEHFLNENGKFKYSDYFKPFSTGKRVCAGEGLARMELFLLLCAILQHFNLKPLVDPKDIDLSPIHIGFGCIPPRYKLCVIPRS
T2 sequence (P10635 whole entry): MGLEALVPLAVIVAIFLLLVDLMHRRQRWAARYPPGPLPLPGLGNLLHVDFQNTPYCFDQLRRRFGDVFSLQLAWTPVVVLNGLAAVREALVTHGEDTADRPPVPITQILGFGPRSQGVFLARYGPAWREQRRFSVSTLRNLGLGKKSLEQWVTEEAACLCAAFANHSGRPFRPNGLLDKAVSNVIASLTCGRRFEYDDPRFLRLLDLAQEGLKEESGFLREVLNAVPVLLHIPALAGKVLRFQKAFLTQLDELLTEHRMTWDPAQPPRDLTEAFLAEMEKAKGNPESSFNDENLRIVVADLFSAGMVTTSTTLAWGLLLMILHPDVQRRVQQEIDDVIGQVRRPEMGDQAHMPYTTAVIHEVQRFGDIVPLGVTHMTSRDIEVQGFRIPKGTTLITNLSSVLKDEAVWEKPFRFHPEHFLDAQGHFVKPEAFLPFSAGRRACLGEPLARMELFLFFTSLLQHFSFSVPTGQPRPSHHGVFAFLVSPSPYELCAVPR

SMILES	Absolute peak area, HepaRG [25 μM] ([1]; 24 h)	Number of phase I metabolites detected, HepaRG [25 μM] ([1]; 25 μM, 24 h)	Number of phase II metabolites detected, HepaRG [25 μM] ([1]; 25 μM, 24 h)	Absolute peak area, HepaRG [250 μM] ([1]; 24 h)	Number of phase I metabolites detected, HepaRG [250 μM] ([1]; 250 μM, 24 h)	Number of phase II metabolites detected, HepaRG [250 μM] ([1]; 250 μM, 24 h)	Relative number of matches with the four most abundant signals in human plasma, HepaRG [25 μM] [1, 6] [%]	Relative number of matches with the four most abundant signals in human plasma, HepaRG [250 μM] [1, 6] [%]	Relative number of matches with the four most abundant signals in human urine, HepaRG [25 μM] [1, 7] [%]	Relative number of matches with the four most abundant signals in human urine, HepaRG [250 μM] [1, 7] [%]	Absolute peak area, Zebrafish larvae [25 μM] ([2]; 24 h)	Number of phase I metabolites detected, Zebrafish larvae ([2]; 25 μM in medium, 24 h)	Number of phase II metabolites detected, Zebrafish larvae ([2]; 25 μM in medium, 24 h)	Relative number of matches with the four most abundant signals in human plasma, Zebrafish larvae ([2]; plasma, larvae exposed to 25 μM) [%]	Relative number of matches with the four most abundant signals in human urine, Zebrafish larvae ([2]; urine, larvae exposed to 25 μM) [%]	Detection of metabolite in incubation with CYP1A2 [3]	Detection of metabolite in incubation with CYP2D6 [4]	Detection of metabolite in incubation with CYP2E1 [5]
COC(=O)C(NC(=O)c1nn(CCCCF)c2ccccc12)C(C)(C)C (centres unmarked) [4F-MDMB-BINACA, methyl 2-[1-(4-fluorobutyl)-1H-indazole-3-carbonyl]amino-3,3-dimethylbutanoate]	1.28E+08	7	2	5.18E+08	12	3	50	75	50	100	2.89E+09	14	4	100	75			
O=C(O)c1nn(CCCCF)c2ccccc12 [MB1]	3.34E+04			3.82E+06												–	–	–
COC(=O)[C@@H](NC(=O)c1n[nH]c2ccccc12)C(C)(C)C [MB4]				9.55E+06							7.45E+06					+	–	–
CC(C)(C)C(NC(=O)c1nn(CCCCF)c2ccccc12)C(=O)O (centres unmarked) [MB8]	5.16E+07			1.63E+09							1.73E+07					–	–	–
COC(=O)[C@@H](NC(=O)c1nn(CCCCO)c2ccccc12)C(C)(C)C [MB11]	9.30E+04			6.93E+06							2.92E+06					–	–	–
COC(=O)[C@@H](NC(=O)c1nn(CCCCF)c2ccccc12)C(C)(C)CO [MB16]											5.98E+06					–	–	–
